Laboratory results: patent publication US11608320B2, “Oxazolidinone hydroxamic acid derivatives” (KUWAIT UNIVERSITY, priority 2020, dated 2023)

Columns and labels:
[1] = target: T1, recombinant human 5-LO enzyme (Homo sapiens, UniProt P09917); assay: Direct 5-LO inhibitory activity in a cell-free assay (H2DCF-DA fluorescence); format: biochemical; settings: cell-free, recombinant human 5-LO; read-out: Inhibitory Activity IC50, Human recomb. 5-LO
T1 sequence (P09917 1-674): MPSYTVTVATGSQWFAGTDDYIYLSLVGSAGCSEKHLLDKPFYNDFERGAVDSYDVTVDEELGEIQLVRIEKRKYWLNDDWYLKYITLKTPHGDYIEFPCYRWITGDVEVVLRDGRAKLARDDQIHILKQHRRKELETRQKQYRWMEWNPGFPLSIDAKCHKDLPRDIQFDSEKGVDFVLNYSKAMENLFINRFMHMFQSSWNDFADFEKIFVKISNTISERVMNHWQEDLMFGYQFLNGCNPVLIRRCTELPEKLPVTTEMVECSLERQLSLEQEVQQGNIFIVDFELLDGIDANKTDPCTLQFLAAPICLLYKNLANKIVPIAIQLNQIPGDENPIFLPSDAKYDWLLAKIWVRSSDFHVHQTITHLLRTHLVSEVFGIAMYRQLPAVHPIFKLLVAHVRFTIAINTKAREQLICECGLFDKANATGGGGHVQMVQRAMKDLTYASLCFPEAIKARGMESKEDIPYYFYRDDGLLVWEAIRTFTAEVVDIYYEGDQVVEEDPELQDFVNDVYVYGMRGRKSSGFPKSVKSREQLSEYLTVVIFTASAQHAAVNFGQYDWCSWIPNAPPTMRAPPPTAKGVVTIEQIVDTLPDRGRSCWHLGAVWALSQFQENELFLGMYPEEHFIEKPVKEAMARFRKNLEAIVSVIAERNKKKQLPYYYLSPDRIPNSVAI

[2] = test system: LTC4 release from IgE/antigen-activated mouse mast cells (BMMC); assay: Inhibition of LTC4 release in allergen/IgE-activated bone marrow-derived mouse mast cells; format: cell-based; settings: BMMC, anti-DNP IgE sensitized, DNP-BSA 30 ng/ml, 30 min
From the text: Inhibition of LTC4 release and degranulation in allergen/IgE-activated bone marrow-derived mouse mast cells (BMMC): Bone marrow-derived mast cells (BMMC) were generated from pathogen-free 5-7 week old male Balb/c mice according to the method of Davis et al., [2004] (Davis, B. J., et al., (2004), Journal of Immunology, 173: 6914-6920). Essentially, bone marrow cells were obtained by flushing of the femoral bone marrow and cultured in RPMI 1640 medium supplemented with 10% FBS, 100 U/ml penicillin, and 100 μg/ml streptomycin, 25 mM HEPES, 1.0 mM sodium pyruvate, 0.1 mM nonessential amino acids, 0.0035% 2-mercaptoethanol, and 30 ng/ml mouse recombinant IL-3, with culture medium replaced every two days. Cells were used after 4-8 weeks of culture, by which time at least 97% of the cells would have differentiated into mast cells.
The generated BMMCs were seeded at 5×10^4 cells/well in a 96-well flat-bottom culture plate and passively sensitized overnight with 0.5 μg/ml anti-DNP monoclonal IgE antibody (clone SPE-7, Sigma-Aldrich, St. Louis, Mo., USA). The cells were then washed twice to remove any unbound antibody and subsequently re-suspended in reaction buffer (135 mM NaCl, 5 mM KCl, 1.8 mM CaCl2), 1 mM MgCl2, 5.6 mM glucose, 0.05% BSA and 20 mM HEPES, pH 7.4). They were then pre-incubated with the test compounds (0.01-30 μM) or the solvent (0.05% DMSO) for 15 min before being stimulated with the specific antigen, DNP-BSA (30 ng/ml). After 30 min incubation at 37° C., the amount of LTC4 released into the supernatant (as index of 5-LO activity) was determined by ELISA as described below.
Assay of released leukotrienes/β-hexoseaminidase enzyme: Appropriately diluted supernatants were assayed for the released LTs (LTB4 and LTC4), by the enzyme immunoassay (EIA) method using assay kits supplied by R&D Systems (Minneapolis, Minn., USA) and following the manufacturer's instructions.

IC50 [1]: 1.6 µM
SMILES: CCCCCCCC(=O)N(O)C[C@H]1CN(c2ccc(N3CCOCC3)c(F)c2)C(=O)O1 [PH-251, (R)—N-((3-(3-fluoro-4-morpholinophenyl)-2-oxooxazolidin-5-yl)methyl)-N-hydroxyoctanamide]
Inhibition of generation of LTC4 from IgE/allergen-activated mast cells (FIG. 2A) [2]: equally effective in inhibiting the generation of LTC4
